Laboratory results published in PubChem BioAssay (NCI).
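Cells were grown in 96-well plates and exposed to each compound for 48 hours at five concentrations; endpoints were interpolated linearly between bracketing concentrations, or set to the highest concentration if not reached. At the GI50, growth is halved. At the TGI there is no net growth.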

Assays:
Experiment in all cases: growth of human tumour cells (NCI), 48 h
NCI-H522 lung = tested on: NCI-H522 lung
SK-OV-3 ovarian = tested on: SK-OV-3 ovarian
KM12 colon = tested on: KM12 colon
MDA-MB-468 breast = tested on: MDA-MB-468 breast
LOX IMVI melanoma = tested on: LOX IMVI melanoma
SN12C renal = tested on: SN12C renal
MDA-MB-231 breast = tested on: MDA-MB-231 breast
IGROV1 ovarian = tested on: IGROV1 ovarian
OVCAR-3 ovarian = tested on: OVCAR-3 ovarian
M14 melanoma = tested on: M14 melanoma
SNB-75 CNS = tested on: SNB-75 CNS
HOP-62 NSCLC = tested on: HOP-62 NSCLC
SR leukemia = tested on: SR leukemia
NCI/ADR-RES ovarian = tested on: NCI/ADR-RES ovarian
U251 CNS = tested on: U251 CNS
A549 NSCLC = tested on: A549 NSCLC
786-0 renal = tested on: 786-0 renal
K-562 leukemia = tested on: K-562 leukemia
HCT-116 colon = tested on: HCT-116 colon
SF-295 CNS = tested on: SF-295 CNS
MOLT-4 leukemia = tested on: MOLT-4 leukemia
ACHN renal = tested on: ACHN renal
T-47D breast = tested on: T-47D breast
OVCAR-4 ovarian = tested on: OVCAR-4 ovarian
RPMI-8226 leukemia = tested on: RPMI-8226 leukemia
MDA-MB-435 = tested on: MDA-MB-435
SW-620 colon = tested on: SW-620 colon
OVCAR-5 ovarian = tested on: OVCAR-5 ovarian
CCRF-CEM leukemia = tested on: CCRF-CEM leukemia
HT29 colon = tested on: HT29 colon
HCT-15 colon = tested on: HCT-15 colon
NCI-H226 lung = tested on: NCI-H226 lung
OVCAR-8 ovarian = tested on: OVCAR-8 ovarian
HCC-2998 colon = tested on: HCC-2998 colon
NCI-H23 lung = tested on: NCI-H23 lung
UACC-62 melanoma = tested on: UACC-62 melanoma
A498 renal = tested on: A498 renal
HS 578T breast = tested on: HS 578T breast
SK-MEL-2 melanoma = tested on: SK-MEL-2 melanoma
SK-MEL-5 melanoma = tested on: SK-MEL-5 melanoma
MALME-3M melanoma = tested on: MALME-3M melanoma
RXF 393 renal = tested on: RXF 393 renal
SF-268 CNS = tested on: SF-268 CNS
UACC-257 melanoma = tested on: UACC-257 melanoma
HL-60(TB) leukemia = tested on: HL-60(TB) leukemia
EKVX NSCLC = tested on: EKVX NSCLC
TK-10 renal = tested on: TK-10 renal
UO-31 renal = tested on: UO-31 renal
NCI-H460 lung = tested on: NCI-H460 lung
BT-549 breast = tested on: BT-549 breast
COLO 205 colon = tested on: COLO 205 colon
SF-539 CNS = tested on: SF-539 CNS
SNB-19 CNS = tested on: SNB-19 CNS
CAKI-1 renal = tested on: CAKI-1 renal
DU-145 prostate = tested on: DU-145 prostate
HOP-92 NSCLC = tested on: HOP-92 NSCLC
PC-3 prostate = tested on: PC-3 prostate
SK-MEL-28 melanoma = tested on: SK-MEL-28 melanoma
MCF7 breast = tested on: MCF7 breast

## COc1cccc(/C=N/NC(=O)c2ccc3nc(-c4ccc(Cl)cc4)[nH]c3c2)c1O
NCI-H522 lung
  GI50: 1.17 µM
  TGI: 2.81 µM
SK-OV-3 ovarian
  GI50: 1.03 µM
  TGI: 2.79 µM
KM12 colon
  GI50: 0.715 µM
  TGI: 1.88 µM
MDA-MB-468 breast
  GI50: 0.611 µM
  TGI: 1.45 µM
LOX IMVI melanoma
  GI50: 1.18 µM
  TGI: 2.53 µM
SN12C renal
  GI50: 1.08 µM
  TGI: 2.59 µM
MDA-MB-231 breast
  GI50: 0.988 µM
  TGI: 3.15 µM
IGROV1 ovarian
  GI50: 1.25 µM
  TGI: 3.14 µM
OVCAR-3 ovarian
  GI50: 0.353 µM
  TGI: 1.05 µM
M14 melanoma
  GI50: 1.01 µM
  TGI: 4.28 µM
SNB-75 CNS
  GI50: 0.231 µM
  TGI: 1.38 µM
HOP-62 NSCLC
  GI50: 0.57 µM
  TGI: 1.85 µM
SR leukemia
  GI50: 0.369 µM
  TGI: 3.75 µM
NCI/ADR-RES ovarian
  GI50: > 100 µM
  TGI: > 100 µM
U251 CNS
  GI50: 1.5 µM
  TGI: 3.08 µM
A549 NSCLC
  GI50: 3.68 µM
  TGI: 14.8 µM
786-0 renal
  GI50: 1.06 µM
  TGI: 2.52 µM
K-562 leukemia
  GI50: 0.332 µM
HCT-116 colon
  GI50: 1.19 µM
  TGI: 2.57 µM
SF-295 CNS
  GI50: 2.2 µM
  TGI: 5.46 µM
MOLT-4 leukemia
  GI50: 0.421 µM
  TGI: 2.46 µM
ACHN renal
  GI50: 1.32 µM
  TGI: 6.25 µM
T-47D breast
  GI50: 0.389 µM
  TGI: 2.01 µM
OVCAR-4 ovarian
  GI50: 0.728 µM
  TGI: 3.18 µM
RPMI-8226 leukemia
  GI50: 2.22 µM
  TGI: 5.54 µM
MDA-MB-435
  GI50: 1.01 µM
  TGI: 2.83 µM
SW-620 colon
  GI50: 1.32 µM
  TGI: 3.52 µM
OVCAR-5 ovarian
  GI50: 1.85 µM
  TGI: 5.08 µM
CCRF-CEM leukemia
  GI50: 0.425 µM
  TGI: 3.77 µM
HT29 colon
  GI50: 4.17 µM
  TGI: 19.3 µM
HCT-15 colon
  GI50: 1.31 µM
  TGI: > 40 µM
NCI-H226 lung
  GI50: 1.65 µM
  TGI: 4 µM
OVCAR-8 ovarian
  GI50: 1.58 µM
  TGI: 4.39 µM
HCC-2998 colon
  GI50: 0.8 µM
  TGI: 2.2 µM
NCI-H23 lung
  GI50: 0.525 µM
  TGI: 1.54 µM
UACC-62 melanoma
  GI50: 0.607 µM
  TGI: 1.77 µM
A498 renal
  GI50: 5 µM
  TGI: 11.9 µM
HS 578T breast
  GI50: 0.705 µM
  TGI: 2.9 µM
SK-MEL-2 melanoma
  GI50: 0.378 µM
  TGI: 1.49 µM
SK-MEL-5 melanoma
  GI50: 0.772 µM
  TGI: 2.09 µM
MALME-3M melanoma
  GI50: 1.36 µM
  TGI: 2.89 µM
RXF 393 renal
  GI50: 0.972 µM
  TGI: 2.46 µM
SF-268 CNS
  GI50: 0.484 µM
  TGI: 1.52 µM
UACC-257 melanoma
  GI50: 1.19 µM
  TGI: 3.53 µM
HL-60(TB) leukemia
  GI50: 1.07 µM
  TGI: 4.63 µM
EKVX NSCLC
  GI50: 2.12 µM
  TGI: 9.8 µM
TK-10 renal
  GI50: 4.07 µM
  TGI: 15.9 µM
UO-31 renal
  GI50: 1.01 µM
  TGI: > 48 µM
NCI-H460 lung
  GI50: 1.34 µM
  TGI: 2.77 µM
BT-549 breast
  GI50: 0.673 µM
  TGI: 1.79 µM
COLO 205 colon
  GI50: 1.58 µM
  TGI: 3.56 µM
SF-539 CNS
  GI50: 0.428 µM
  TGI: 1.02 µM
SNB-19 CNS
  GI50: 1.31 µM
  TGI: 2.59 µM
CAKI-1 renal
  GI50: 1.01 µM
  TGI: 3.51 µM
DU-145 prostate
  GI50: 1.34 µM
  TGI: 3.28 µM
HOP-92 NSCLC
  GI50: 0.67 µM
  TGI: 2.4 µM
PC-3 prostate
  GI50: 1.35 µM
  TGI: 4.67 µM
SK-MEL-28 melanoma
  GI50: 1 µM
  TGI: 2.93 µM
MCF7 breast
  GI50: 0.66 µM
  TGI: 3.38 µM

## Cc1[nH]nc2ccc3nc(-c4cn[nH]c4C(F)(F)F)c4c(c3c12)CCCC4
NCI-H522 lung
  GI50: 1.44 µM
  TGI: 5.06 µM
SK-OV-3 ovarian
  GI50: 1.78 µM
  TGI: 5.31 µM
KM12 colon
  GI50: 2.82 µM
  TGI: 13.3 µM
MDA-MB-468 breast
  GI50: 2.46 µM
  TGI: 8.78 µM
LOX IMVI melanoma
  GI50: 3.55 µM
  TGI: 13.1 µM
SN12C renal
  GI50: 3.31 µM
  TGI: 13.3 µM
IGROV1 ovarian
  GI50: 2.61 µM
  TGI: 7.43 µM
OVCAR-3 ovarian
  GI50: 4.15 µM
  TGI: 14.6 µM
M14 melanoma
  GI50: 2.77 µM
  TGI: 10.9 µM
HOP-62 NSCLC
  GI50: 3.53 µM
  TGI: 12.5 µM
SR leukemia
  GI50: 1.56 µM
  TGI: 4.13 µM
NCI/ADR-RES ovarian
  GI50: 11.7 µM
  TGI: 30.1 µM
U251 CNS
  GI50: 4.41 µM
  TGI: 17.6 µM
A549 NSCLC
  GI50: 3.54 µM
  TGI: 13 µM
786-0 renal
  GI50: 2.95 µM
  TGI: 12.5 µM
K-562 leukemia
  GI50: 3.5 µM
  TGI: 19.9 µM
HCT-116 colon
  GI50: 2.58 µM
  TGI: 10.3 µM
SF-295 CNS
  GI50: 3.34 µM
  TGI: 14 µM
MOLT-4 leukemia
  GI50: 2.16 µM
  TGI: 5.89 µM
ACHN renal
  GI50: 2.26 µM
  TGI: 11.6 µM
T-47D breast
  GI50: 2.4 µM
  TGI: 12.1 µM
OVCAR-4 ovarian
  GI50: 8.96 µM
  TGI: 21.2 µM
RPMI-8226 leukemia
  GI50: 2.49 µM
  TGI: 30.3 µM
MDA-MB-435
  GI50: 3.01 µM
  TGI: 11.2 µM
SW-620 colon
  GI50: 2.48 µM
  TGI: 11.3 µM
OVCAR-5 ovarian
  GI50: 3.15 µM
  TGI: 13.7 µM
CCRF-CEM leukemia
  GI50: 3.49 µM
  TGI: 19.1 µM
HT29 colon
  GI50: 3.9 µM
  TGI: 12.7 µM
HCT-15 colon
  GI50: 2.75 µM
  TGI: 9.34 µM
NCI-H226 lung
  GI50: 5.15 µM
  TGI: 43.7 µM
OVCAR-8 ovarian
  GI50: 4.44 µM
  TGI: 18.7 µM
HCC-2998 colon
  GI50: 3.52 µM
  TGI: 12.6 µM
NCI-H23 lung
  GI50: 2.95 µM
  TGI: 11 µM
UACC-62 melanoma
  GI50: 2.09 µM
  TGI: 6.64 µM
A498 renal
  GI50: 2.32 µM
  TGI: 6.77 µM
HS 578T breast
  GI50: 2.14 µM
  TGI: 5.19 µM
SK-MEL-5 melanoma
  GI50: 2.94 µM
  TGI: 9.26 µM
MALME-3M melanoma
  GI50: 4.04 µM
  TGI: 13.6 µM
RXF 393 renal
  GI50: 1.37 µM
  TGI: 4.39 µM
SF-268 CNS
  GI50: 2.99 µM
  TGI: 13.5 µM
UACC-257 melanoma
  GI50: 8.47 µM
  TGI: 22 µM
HL-60(TB) leukemia
  GI50: 2.72 µM
  TGI: 6.92 µM
EKVX NSCLC
  GI50: 2.84 µM
  TGI: 9.62 µM
TK-10 renal
  GI50: 2.29 µM
  TGI: 11.7 µM
NCI-H460 lung
  GI50: 3 µM
  TGI: 13.1 µM
BT-549 breast
  GI50: 2.1 µM
  TGI: 5.19 µM
COLO 205 colon
  GI50: 3.24 µM
  TGI: 10.9 µM
SF-539 CNS
  GI50: 2.03 µM
  TGI: 6.54 µM
SNB-19 CNS
  GI50: 5.14 µM
  TGI: 17.9 µM
CAKI-1 renal
  GI50: 3.3 µM
  TGI: 11.8 µM
DU-145 prostate
  GI50: 3.99 µM
  TGI: 18.5 µM
HOP-92 NSCLC
  GI50: 2.86 µM
  TGI: 8.51 µM
PC-3 prostate
  GI50: 3.94 µM
  TGI: 17.1 µM
SK-MEL-28 melanoma
  GI50: 3.79 µM
  TGI: 14.2 µM
MCF7 breast
  GI50: 4.03 µM
  TGI: 16.8 µM
